For 15 compounds, MIC results are on record in patent US20090156577A1, “7-AMINO ALKYLIDENYL-HETEROCYCLIC QUINOLONES AND NAPHTHYRIDONES” (priority 2004, published 2009).

The test system of the assay is pathogenic bacteria. Nature of the assay: MIC by microdilution broth method (NCCLS M7-A4), in vitro antibacterial activity. In kind it is cell-based. The method in brief: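 Broth microdilution per NCCLS M7-A4: two-fold serial dilutions in cation-adjusted Mueller-Hinton broth, inoculum about 5×10^4 CFU/well. Trays incubated 16–20 h at 35 °C. MIC read by comparing growth against no-compound growth controls.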
Background: Dilution methods test growth across graded concentrations, often in twofold steps.

Where [1] appears, read: Staphylococcus aureus, Organism A: Staphylococcus aureus OC4172, read-out: MIC.
[2] abbreviates: Streptococcus pneumoniae, ATCC49619, Organism E: Streptococcus pneumoniae ATCC 49619, read-out: MIC.
[3] abbreviates: Streptococcus pneumoniae, Organism B: fluoroquinolone-resistant clinical isolate of Streptococcus pneumoniae (QRDR amino acid substitutions).
The mark [4] stands for this setting: Streptococcus pneumoniae, Organism C: fluoroquinolone-resistant clinical isolate of Streptococcus pneumoniae (QRDR amino acid substitutions).
Setting [5] is: Streptococcus pneumoniae, Organism D: fluoroquinolone-resistant clinical isolate of Streptococcus pneumoniae (QRDR amino acid substitutions).
Where [6] appears, read: Staphylococcus aureus, Organism A: Staphylococcus aureus OC4172.
Where [7] appears, read: Streptococcus pneumoniae, ATCC49619, Organism E: Streptococcus pneumoniae ATCC 49619.

Converted amounts (≈) assume the structure as drawn. Where a name gives a salt, the structure may show the parent alone. Read-outs that look alike come from different tables or passages of the source.

The MIC is the lowest concentration found to suppress growth. As for `CNCC(Cl)=C1CCN(c2c(F)cc3c(=O)c(C(=O)O)cn(C4CC4)c3c2O)CC1.Cl` [Compound 267, 7-[4-(1-Chloro-2-methylamino-ethylidene)-piperidin-1-yl]-1-cyclopropyl-6-fluoro-8-hydroxy-4-oxo-1,4-dihydro-quinoline-3-carboxylic Acid Hydrochloride Salt], the minimum inhibitory concentration (MIC) was found to be 0.12 µg/mL under setting [1]; 0.5 µg/mL under setting [2]; 2 µg/mL under setting [3]; 2 µg/mL under setting [4]; 2 µg/mL under setting [5].
Regarding `O=C(O)c1cn(C2CC2)c2nc(N3CCC(=C(Cl)CN4CCCCC4)CC3)c(F)cc2c1=O` [Compound 181, 7-[4-(1-Chloro-2-piperidin-1-yl-ethylidene)-piperidin-1-yl]-1-cyclopropyl-6-fluoro-4-oxo-1,4-dihydro-[1,8]naphthyridine-3-carboxylic acid], the minimum inhibitory concentration (MIC) is 1 µg/mL (≈ 2.11 µM) under setting [1], 2 µg/mL (≈ 4.21 µM) under setting [2], greater than 16 µg/mL under setting [4] and 8 µg/mL (≈ 16.8 µM) under setting [5].
`NC/C(F)=C1/COCCN(c2cc3c(cc2F)c(=O)c(C(=O)O)cn3C2CC2)C1` [Compound 503, (Z)-7-[6-(2-Amino-1-fluoro-ethylidene)-[1,4]oxazepan-4-yl]-1-cyclopropyl-6-fluoro-4-oxo-1,4-dihydro-quinoline-3-carboxylic acid]: the minimum inhibitory concentration (MIC) was 4 µg/mL (≈ 9.87 µM) under setting [1], 16 µg/mL (≈ 39.5 µM) under setting [2], greater than 16 µg/mL under setting [4] and greater than 16 µg/mL under setting [5].
On to `C/C(CN)=C1\CCCN(c2c(F)cc3c(=O)c(C(=O)O)cn4c3c2OC[C@@H]4C)C1` [Compound 404, (Z)-9-[3-(2-Amino-1-methyl-ethylidene)-piperidin-1-yl]-8-fluoro-(3S)-3-methyl-6-oxo-2,3-dihydro-6H-1-oxa-3a-aza-phenalene-5-carboxylic acid], for which the minimum inhibitory concentration (MIC) by setting is: under setting [1], 0.12 µg/mL (≈ 0.299 µM); under setting [2], 0.5 µg/mL (≈ 1.25 µM); under setting [3], 4 µg/mL (≈ 9.96 µM); under setting [4], 16 µg/mL (≈ 39.9 µM); under setting [5], greater than 16 µg/mL.
The like results for `C[C@H]1COc2c(N3CC(=C(Cl)CO)C3)c(F)cc3c(=O)c(C(=O)O)cn1c23` [Compound 362, (S)-9-[3-(1-Chloro-2-hydroxy-ethylidene)-azetidin-1-yl]-8-fluoro-3-methyl-6-oxo-2,3-dihydro-6H-1-oxa-3a-aza-phenalene-5-carboxylic Acid] were, in that order, 0.03 µg/mL (≈ 0.076 µM), 0.5 µg/mL (≈ 1.27 µM), 8 µg/mL (≈ 20.3 µM), greater than 16 µg/mL and 8 µg/mL (≈ 20.3 µM).
On to `COc1c(N2CCC/C(=C(\Cl)CN)C2)c(F)cc2c(=O)c(C(=O)O)cn(C3CC3)c12` [Compound 261, (E)-7-[3-(2-Amino-1-chloro-ethylidene)-piperidin-1-yl]-1-cyclopropyl-6-fluoro-8-methoxy-4-oxo-1,4-dihydro-quinoline-3-carboxylic Acid Trifluoroacetic Acid Salt], for which the MIC by setting is: under setting [6], no more than 0.015 µg/mL; under setting [7], no more than 0.015 µg/mL; under setting [3], 0.06 µg/mL; under setting [4], 0.06 µg/mL; under setting [5], 0.06 µg/mL.
Turning to `COc1c(N2CC/C(=C(\Cl)CN)C2)c(F)cc2c(=O)c(C(=O)O)cn(C3CC3)c12` [Compound 14, (E)-7-[3-(2-Amino-1-chloro-ethylidene)-pyrrolidin-1-yl]-1-cyclopropyl-6-fluoro-8-methoxy-4-oxo-1,4-dihydro-quinoline-3-carboxylic acid], the MIC under setting [1] amounted to 0.03 µg/mL (≈ 0.0711 µM); the minimum inhibitory concentration (MIC) under setting [2] was determined as 0.25 µg/mL (≈ 0.593 µM); the MIC under setting [3] is 2 µg/mL (≈ 4.74 µM); the MIC under setting [4] was found to be 1 µg/mL (≈ 2.37 µM); the MIC under setting [5] was found to be 1 µg/mL (≈ 2.37 µM).
In the case of `NCC(Cl)=C1CCN(c2cc3c(cc2F)c(=O)c(C(=O)O)cn3C2CC2)CC1` [Compound 65, 7-[4-(2-Amino-1-chloro-ethylidene)-piperidin-1-yl]-1-1-cyclopropyl-6-fluoro-4-oxo-1,4-dihydro-quinoline-3-carboxylic acid], the MIC worked out at 0.03 µg/mL (≈ 0.0739 µM) under setting [1], 0.12 µg/mL (≈ 0.296 µM) under setting [2], 0.5 µg/mL (≈ 1.23 µM) under setting [4] and 1 µg/mL (≈ 2.46 µM) under setting [5].
In the case of `Nc1nc(-n2cc(C(=O)O)c(=O)c3cc(F)c(N4CCC/C(=C(/F)CO)C4)c(Cl)c32)c(F)cc1F` [Compound 359, (Z)-1-(6-Amino-3,5-difluoro-pyridin-2-yl)-8-chloro-6-fluoro-7-[3-(1-fluoro-2-hydroxy-ethylidene)-piperidin-1-yl]-4-oxo-1,4-dihydroquinoline-3-carboxylic Acid Trifluoroacetate], the minimal inhibitory concentration (MIC) by setting is: under setting [6], 0.12 µg/mL; under setting [7], 1 µg/mL; under setting [4], 8 µg/mL; under setting [5], 16 µg/mL.
In the case of `C[C@@H]1CN(c2nc3c(cc2F)c(=O)c(C(=O)O)cn3C2CC2)C/C(=C(/F)CN)CO1` [Compound 500, (Z)-7-[6-(2-Amino-1-fluoro-ethylidene)-(2R)-2-methyl-[1,4]oxazepan-4-yl]-1-cyclopropyl-6-fluoro-4-oxo-1,4-dihydro-[1,8]naphthyridine-3-carboxylic acid], the MIC was 2 µg/mL (≈ 4.76 µM) under setting [1]; 16 µg/mL (≈ 38.1 µM) under setting [2]; greater than 16 µg/mL under setting [3]; greater than 16 µg/mL under setting [4]; greater than 16 µg/mL under setting [5].
Take `O=C(O)c1cn(C2CC2)c2nc(N3CCC(=CCO)CC3)c(F)cc2c1=O` [Compound 163, 1-Cyclopropyl-6-fluoro-7-[4-(2-hydroxy-ethylidene)-piperidin-1-yl]-4-oxo-1,4-dihydro-[1,8]naphthyridine-3-carboxylic acid]: the minimum inhibitory concentration (MIC) amounted to 0.12 µg/mL (≈ 0.321 µM) under setting [1], 1 µg/mL (≈ 2.68 µM) under setting [2], 4 µg/mL (≈ 10.7 µM) under setting [3] and 4 µg/mL (≈ 10.7 µM) under setting [4].
With `COc1c(N2CC(=C(Cl)CO)C2)c(F)cc2c(=O)c(C(=O)O)cn(C3CC3)c12` [Compound 356, 7-[3-(1-Chloro-2-hydroxy-ethylidene)-azetidin-1-yl]-1-cyclopropyl-6-fluoro-8-methoxy-4-oxo-1,4-dihydro-quinoline-3-carboxylic Acid], the MIC runs as follows: under setting [1], 0.06 µg/mL (≈ 0.147 µM); under setting [2], 0.5 µg/mL (≈ 1.22 µM); under setting [3], no more than 4 µg/mL; under setting [4], greater than 16 µg/mL; under setting [5], 8 µg/mL (≈ 19.6 µM).
The like results for `C=C(C)CC(CN)=C1CCN(c2c(F)cc3c(=O)c(C(=O)O)cn(C4CC4)c3c2OC)CC1` [Compound 202, 7-[4-(1-Aminomethyl-3-methyl-but-3-enylidene)-piperidin-1-yl]-1-cyclopropyl-6-fluoro-8-methoxy-4-oxo-1,4-dihydro-quinoline-3-carboxylic acid] were, in that order, 0.5 µg/mL (≈ 1.1 µM), 2 µg/mL (≈ 4.39 µM), 16 µg/mL (≈ 35.1 µM), 16 µg/mL (≈ 35.1 µM) and 8 µg/mL (≈ 17.6 µM).
`NC/C(F)=C1\CCCN(c2nc3c(cc2F)c(=O)c(C(=O)O)cn3C2CC2)CC1` [Compound 495, (Z)-7-[4-(2-Amino-1-fluoro-ethylidene)-azepan-1-yl]-1-cyclopropyl-6-fluoro-4-oxo-1,4-dihydro-[1,8]naphthyridine-3-carboxylic acid]: the minimum inhibitory concentration (MIC) under setting [1] was found to be 0.25 µg/mL (≈ 0.618 µM), the MIC under setting [2] was determined as 1 µg/mL (≈ 2.47 µM) and the MIC under setting [4] stood at 2 µg/mL (≈ 4.95 µM).
Regarding `COc1c(N2CCC(=C(Cl)CN3CCCCC3)CC2)c(F)cc2c(=O)c(C(=O)O)cn(C3CC3)c12` [Compound 194, 7-[4-(1-Chloro-2-piperidin-1-yl-ethylidene)-piperidin-1-yl]-1-cyclopropyl-6-fluoro-8-methoxy-4-oxo-1,4-dihydro-quinoline-3-carboxylic acid], the MIC under setting [1] worked out at 0.12 µg/mL (≈ 0.238 µM); the MIC under setting [2] turned out to be 0.5 µg/mL (≈ 0.992 µM); the MIC under setting [3] is 2 µg/mL (≈ 3.97 µM); inhibition of growth under setting [4] (MIC) required 4 µg/mL (≈ 7.94 µM); the MIC under setting [5] was found to be 1 µg/mL (≈ 1.98 µM).
